Data published in patent US20210299079A1, “MONOMETHYL FUMARATE-CARRIER CONJUGATES AND METHODS OF THEIR USE” (Flagship Pioneering Innovations V, Inc., priority 2018, published 2021).
Counter-ions that a name gives are not always drawn.

Key:
Type in all cases: in vitro ADME
[1] = Stability of conjugates in Simulated Gastric Fluid (SGF); settings: SGF pH 1.6 with pepsin, 37° C., 1 μM compound
Summary of the method: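 Compound at 1 μM (from 1 mM DMSO stock) in pH 1.6 NaCl medium with FaSSIF powder and 0.1 mg/mL pepsin, mixed at 37° C. Aliquots quenched with equal volume acetonitrile at T0 and regular intervals; LC/MS gives degradation rate.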

[2] = Stability of conjugates in Simulated Intestinal Fluid (SIF); settings: SIF pH 6.7 with pancreatin, 37° C., 1 μM compound
Summary of the method: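 Compounds at 1 μM in fresh simulated intestinal fluid: FaSSIF powder in pH 6.7 phosphate buffer with pancreatin. Agitated at 37 °C; aliquots taken at T0 and regular intervals, quenched with 1 volume acetonitrile. Degradation rates determined by LC/MS.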

[3] = In vitro Colonic Material Stability Assay; settings: colonic material slurry in YCFAC media, anaerobic, 1 or 10 μM
Summary of the method: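 Anaerobically, a colonic material slurry (15% w/v) was inoculated into YCFAC or other suitable media. Compounds were added at 1 or 10 μM final. Samples taken at 0–2880 min were quenched with acetonitrile containing internal standard and analysed by LC/MS.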

[4] = In Vitro Biotransformation and Detection of Monomethyl Fumarate Assay; settings: FaSSIF with pancreatin pH 6.5, 100 μM compound, 0 h and 2 h, UHPLC-MSMS
Protocol: Stock solution of compound 2 was prepared at 10 mM in DMSO. FaSSIF was made by mixing sodium taurocholate (3.0 mM) Lecithin (0.75 mM), and pancreatin (10 mg/mL) in prepared solution of sodium phosphate monobasic (28.4 mM), sodium hydroxide (8.7 mM), sodium chloride (105.9 mM), pH 6.5. Compound 2, was added to FaSSIF to final concentration of 100 μM. Release of monomethyl fumaric acid (MMF) was monitored via UHPLC-MSMS and comparing the retention time and corresponding fragmentation of released MMF to retention time and fragmentation of a neat solution of MMF that was analyzed separately with the same method described below. Release of MMF was measured at 0 h and 2 h time points. At both time points samples were centrifuged at 14000 rpm for 10 minutes at 4° C. Supernatants were then transferred to HPLC vials and analyzed immediately. The results of this assay are illustrated in FIG. 1.

## CCC(=O)O[C@@H]1[C@@H](OC(=O)CC)[C@H](C)O[C@@H](OC(=O)/C=C/C(=O)OC)[C@@H]1OC(=O)CC [Compound 2, Methyl ((2S,3R,4R,5S,6S)-6-methyl-3,4,5-tris(propionyloxy)tetrahydro-2H-pyran-2-yl) fumarate]
[1]
  Assay 1 (SGF) (% Remaining @ 1 hour): C (C: >75% of the tested compound remaining)
[2]
  Assay 2 (SIF) (% @ Remaining 4 hours): B (B: 25-75% of the tested compound remaining)
[3]
  Assay 3 (% Remaining at 24 h): C (C: >75% of the tested compound remaining)
[4]
  Release of monomethyl fumaric acid (MMF): actively released
